Entries after “also recorded” stand apart in the source; their conditions may differ. Where a SMILES comes first, the peptide text is derived from it. The star is where a group is joined. Cbz = O=C(OCc1ccccc1)*; Boc = CC(C)(C)OC(=O)*; OtBu = CC(C)(C)O*
Key:
Fibroblasts = test: Viability of fibroblasts (control); assay type: cell-based; details: Fibroblast, identical conditions (72 h), read-out: concentration for 50% reduction of the viability
[1] = system: Human melanoma cells (MeWo); test: Viability of human melanoma cells (MeWo), crystal violet-staining; assay type: cell-based; details: Homo sapiens, 72 h, read-out: concentration at rate of survival of 50% of the cells
Method: (§1) A, Human melanoma cells (MeWo) were treated with increasing concentrations of the compounds 15 or 3 (MG132) for 72 hours. The viability of the cells after the treatment with compound 15 (-♦-) and with MG132 (-□-) was detected by a crystal-violet-staining. B and C, MeWo cells were co-cultivated with the compounds 15 and 3 (MG132) for 24 hours. The cells were subsequently fixed in 70% ethanol, and treated with RNAse A. The DNA was stained with propidium iodide (5 μg/ml), and analysed by means of FACS (FACS Calibur flow cytometer; Beckton Dickinson). The statistical significance was detected by the chi-square-test. The relative distribution of the cells that were present in the G1-(black), in the S-(white) or in the G2 phase (hatched) of the cellular cycle is shown for both compounds as examined (15 in B and MG132 in C).
Human melanoma cells (MeWo) were incubated for 72 h with different concentrations of the inhibitor 15 and 28, and the viability of the cells was determined by means of crystal violet-staining (FIG. 8).

[2] = target: T1, 20S proteasome β1 caspase-like activity (LLE-MCA) (Homo sapiens, UniProt P28072+Q99436); test: Protease assay, caspase-like activity of isolated 20S proteasomes; assay type: biochemical; details: isolated 20S proteasome; LLE-MCA 50 μM; 15 min pre-incubation; read-out: IC50 β1 Caspase-like (E)
T1 construct: Proteasomes were isolated from red blood cells; from tissue; host or cells: red blood cells
Method: (§2) Proteasomes were isolated from red blood cells. Cells were lysed with DTT (1 mM), and the stroma-free supernatant was loaded on DEAE-sepharose (Toyopearls). Proteasome was eluted with an NaCl-gradient in TEAD (20 mM TrisCl pH 7.4, 1 mM EDTA, 1 mM azide, 1 mM DTT) of 100 to 300 mM NaCl. Proteasome was concentrated using ammonium sulfate-precipitation (between 40 and 70% saturation) and was separated in a 10-40% sucrose-gradient through centrifugation at 40.000 rpm for 16 hours (SW40; L7, Beckman & Coulter). Finally, the proteasomes were purified on a MonoQ-column and eluted with an NaCl-gradient at about 280 mM NaCl. The fractions containing purified proteasome were dialysed against 50 mM NaCl in TEAD and stored on ice. The purity was determined using SDS-PAGE.
(§3) Suc-LLVY-AMC, Z-VGR-AMC and LLE-AMC (BACHEM, Calbiochem) was used, in order to determine the chymotrypsin-like, trypsin-like or caspase-like (post-acidic)-activities of the proteasome. Substrate was incubated with proteasome at 37° C. in assay-buffer (20 mM Tris/Cl, pH 7.2, 1 mM EDTA, 1 mM DTT) for one hour. 100 ng proteasome was pre-incubated with 0.01-10 μM of the inhibitor for […]. The reaction was started by the addition of substrate (50 μM). The AMC as released was detected using fluorescence emission at 460 nm (excitation at 390 nm) using a TECAN-fluorimeter. The activity was calculated in fluorescence-units. The inhibition is depicted by IC50-values.
(§4) The effects thereof were compared with the one of the commonly used proteasomal inhibitor 3 (MG132). The chymotrypsin-like (Suc-LLVY-AMC), the trypsin-like (Bz-VGR-AMC), and the caspase-like (Z-LLE-AMC)-activities of 20S proteasomes were determined following incubation for one hour at 37° C.
(§5) The IC50-values form the inhibition of the proteasome were calculated at increasing concentrations of the inhibitor. The samples were pre-incubated for 15 min in ice. The assay was started through the addition of 50 μM of one of the following fluorogenic peptide substrates:
(§6) The release of MCA was determined at 460 nm emission (excitation 390 nm). The IC50-values as calculated for MG132 served as controls.

[3] = system: Human melanoma cells (MeWo); test: Cell cycle arrest in MeWo cells, propidium iodide FACS; assay type: cell-based; details: 24 hours
Method: as §1
Human melanoma cells (MeWo) were with the compounds 15 and 3 (MG132) for 24 hours co-cultivated. The cells were washed with PBS, in 70% ethanol fixed and subsequently treated with RNAse A. The DNA was stained with propidium iodide (5 μg/ml) and analysed by means of flow-cytometry (FACS Calibur flow cytometer; Beckton Dickinson). The relative dispersion of the cells that were present in different phases of the cell cycle, could thus be detected. […] The statistical significance was detected by the Chi-square test.

[4] = target: T2, 20S proteasome β2 trypsin-like activity (VGR-MCA) (Homo sapiens, UniProt P49720+Q99436); test: Protease assay, trypsin-like activity of isolated 20S proteasomes; assay type: biochemical; details: isolated 20S proteasome; VGR-MCA 50 μM; 15 min pre-incubation; read-out: IC50 β2 Trypsin-like (R)
T2 construct: Proteasomes were isolated from red blood cells; from tissue; host or cells: red blood cells
Method: as §2, §3, §4, §5, §6

[5] = target: T3, proteasomal activity in HeLa-cells (Homo sapiens, UniProt P20618+P28074); test: Intracellular inhibition of proteasomes in cultivated HeLa-cells; assay type: cell-based
T3 construct: endogenous in cells; host or cells: HeLa
Method: A, HeLa-cells were cultivated were 24 hours in the presence of the inhibitor. The protein concentration was determined in accordance with the cellular lysis according to Bradford in order to normalise the proteasomal activities to the different amounts of cells. Subsequently Complete (Roche) was added to all lysates, and the proteasomal activity was determined through the hydrolysis of Suc-LLVY-AMC. B, HeLa-cells was incubated with 1 μM of compound 15 for 2, 4, 6 and 24 hours. Cells were lysed, and proteins were separated through SDS-PAGE on a 10% gel, blotted to a PVDF-membrane. The accumulation of the poly-ubiquitinylated proteins was detected in a Western blot by an anti-ubiquitine-antibody (DAKO). C, HeLa-Cells were treated with increasing concentrations of the inhibitor 15, 25, 26, 27, and 28 for 24 hours (lane 1: without inhibitor; lane 2: 10 nM; lane 3: 100 nM and lane 4: 1 μM of the given inhibitor). Cells were lysed, proteins were separated on 15% gels, and the accumulation of the poly-ubiquitinylated proteins was controlled through Western blot.
HeLa-Cells were cultivated in RPMI, supplemented with 10% FCS and penicillin/streptomycin, at 5% CO2. Inhibitors were administered from 100×-stock solutions (in DMSO) at the final concentrations as indicated, and incubated with the cells for at least 20 hours.
Cultivated cells (HeLa) were harvested lysed and with 0.1% NP40 in TEAD in the presence of the commercially available protease-inhibitor-mixture Complete (Roche). The proteasomal activity was measured in 10 μl of the lysate using Suc-LLVY-AMC as a substrate. The protein content was quantified by means of Bradford (Protein assay; BioRad).
An application on cell cultures or animals requires that the concentrations of the inhibitors are chose as low as required. The specific proteasomal activity was reduced to a value of below 50% in cells that were treated with 1 μM of the compounds 15, 22, 25, 26, or 28, respectively (FIG. 6A).

[6] = target: T4, 20S proteasome β5 chymotrypsin-like activity (GLL-MCA) (Homo sapiens, UniProt P20618+P28074); test: Protease assay, chymotrypsin-like activity of isolated 20S proteasomes (GLL substrate); assay type: biochemical; details: isolated 20S proteasome; GLL-MCA 50 μM; 15 min pre-incubation; read-out: IC50 β5 Chym.-like (L)
T4 construct: Proteasomes were isolated from red blood cells; from tissue; host or cells: red blood cells
Method: as §2, §3, §5, §6

20S proteasome = system: T5, 20S proteasome; test: Inhibition of the different proteasomal activities, summary statements; assay type: biochemical; details: isolated proteasomes, specific substrates
T5 construct: Proteasomes were isolated from red blood cells; from tissue; host or cells: red blood cells
Method: The specific inhibition of a single catalytic site is of specific interest for the development of drugs. Thus, the inhibition of the different proteasomal activities of the proteasome was analysed (see also example 6). The different cleavage-preferences of the proteasome were determined by the specific substrate for the hydrophobic (chymotrypsin-like), the trypsine-like and the caspase-like activities of isolated proteasomes.
as §3, §4

[7] = target: T6, 20S proteasome β5 chymotrypsin-like activity (Suc-LLVY-AMC) (Homo sapiens, UniProt P20618+P28074); test: Protease assay, chymotrypsin-like activity of isolated 20S proteasomes (LLVY substrate); assay type: biochemical; details: isolated 20S proteasome; LLVY-MCA 50 μM; 15 min pre-incubation; read-out: IC50 β5 Chymotrypsin-like (Y)
T6 construct: Proteasomes were isolated from red blood cells; from tissue; host or cells: red blood cells
Method: as §2, §3
The chymotrypsin-like (Suc-LLVY-AMC), the trypsin-like (Bz-VGR-AMC), and the caspase-like (Z-LLE-AMC)-activities of 20S proteasomes were determined following incubation for one hour at 37° C.
as §5, §6

[8] = system: caspase 3/7 activation in HeLa-cells; test: Apoptosis-assay, caspase 3/7-activity (Apo-One); assay type: cell-based; details: 1 μM, 20 hours
Method: HeLa-cells that were cultivated for 20 hours in the presence of the given inhibitor, were subsequently incubated for 2 hours with caspase-substrate (Apo-One; Promega). The activation of caspases 3/7 was measured at 538 nm (excitation at 485 nm). Treatment of the cells with TNFα or with MG132 served as control.
For this, 10,000 HeLa-cells pro well were seeded in a 96-well-plate, and co-cultivated for 20 hours with 1 μM of the inhibitors 7, 8, 11, 13-16, 18, 20-23 and 25-28. The induction of apoptosis was determined by measuring of the caspase 3/7-activity (Apo-One®-Assay, Promega).

| IC50 [2] [nM] | reduction of the specific proteasomal activity in cells ([5]; HeLa cells, 1 μM) | IC50 [6] [nM] | IC50 [7] [nM] | membrane-permeation ([5]; cultivated cells) | stability during the incubation periods ([5]; cultivated cells) | proteasomal activity reduced to ([5]; cultivated cells, remaining activity) [%] | SMILES | IC50 (Fibroblasts) [nM] | IC50 [1] [nM] | concentration giving arrest of the cell cycle in the G2 phase [3] [nM] | IC50 [4] [nM] | which proteasomal activities are inhibited (site selectivity) (20S proteasome) | induction of apoptosis (activation of caspase 3 and 7) [8] |
| --- | --- | --- | --- | --- | --- | --- | --- | --- | --- | --- | --- | --- | --- |
| 98 | markedly reduction | 102 | – | – | – | – | CC(C)C[C@@H](C=O)NC(=O)[C@H](CC(=O)OC(C)(C)C)NC(=O)[C@H](CC(C)C)NC(=O)OC(C)(C)C [Compound 13] (Boc-Leu-Asp(OtBu)-Leu-aldehyde) | – | – | – | – | inhibited all of the proteasomal hydrolytic activities | – |
| > 10000 | – | > 10000 | > 10000 | – | – | – | CC(C)C[C@@H](C=O)NC(=O)[C@H](CC(=O)O)NC(=O)[C@@H](N)CC(C)C [Compound 14] (H-Leu-Asp-Leu-aldehyde) | – | – | – | > 10000 | – | – |
| 1720 | – | – | 441 | membrane-permeation | sufficient stability | 10 | CC(C)C[C@H](NC(=O)OCc1ccccc1)C(=O)N[C@@H](CC(C)C)C(=O)N[C@@H](CC(C)C)C(=O)C(=O)NCc1ccccc1 [Compound 26] | – | – | – | – | inhibited the chymotryptic and the caspase-like sites | beginning apoptosis; also recorded: strong induction of apoptosis |

| SMILES | IC50 [2] [nM] | reduction of the specific proteasomal activity in cells ([5]; HeLa cells, 1 μM) | IC50 [6] [nM] | IC50 [7] [nM] | membrane-permeation ([5]; cultivated cells) | stability during the incubation periods ([5]; cultivated cells) | proteasomal activity reduced to ([5]; cultivated cells, remaining activity) [%] | IC50 (Fibroblasts) [nM] | IC50 [1] [nM] | concentration giving arrest of the cell cycle in the G2 phase [3] [nM] | IC50 [4] [nM] | which proteasomal activities are inhibited (site selectivity) (20S proteasome) | induction of apoptosis (activation of caspase 3 and 7) [8] |
| --- | --- | --- | --- | --- | --- | --- | --- | --- | --- | --- | --- | --- | --- |
| CC(C)C[C@@H](C=O)NC(=O)[C@H](CC(C)C)NC(=O)[C@H](CC(C)C)NC(=O)OCc1ccccc1 [Compound 3, reference compound] (Cbz-Leu-Leu-Leu-aldehyde) | 2290 | – | – | – | – | – | – | 500 to 1000 | 35 | 100 | 9220 | – | – |
